Data: patent US6855843B2, “Inhibitors of α4 mediated cell adhesion” (Tanabe Seiyaku Co., Ltd., priority 1998, dated 2005)

Molecular target: T1, α4β7 (adhesion of RPMI cells to CS-1) (Homo sapiens, UniProt P13612+P26010)
T1 construct: endogenous in cells
T1 sequence (P13612 34-1032): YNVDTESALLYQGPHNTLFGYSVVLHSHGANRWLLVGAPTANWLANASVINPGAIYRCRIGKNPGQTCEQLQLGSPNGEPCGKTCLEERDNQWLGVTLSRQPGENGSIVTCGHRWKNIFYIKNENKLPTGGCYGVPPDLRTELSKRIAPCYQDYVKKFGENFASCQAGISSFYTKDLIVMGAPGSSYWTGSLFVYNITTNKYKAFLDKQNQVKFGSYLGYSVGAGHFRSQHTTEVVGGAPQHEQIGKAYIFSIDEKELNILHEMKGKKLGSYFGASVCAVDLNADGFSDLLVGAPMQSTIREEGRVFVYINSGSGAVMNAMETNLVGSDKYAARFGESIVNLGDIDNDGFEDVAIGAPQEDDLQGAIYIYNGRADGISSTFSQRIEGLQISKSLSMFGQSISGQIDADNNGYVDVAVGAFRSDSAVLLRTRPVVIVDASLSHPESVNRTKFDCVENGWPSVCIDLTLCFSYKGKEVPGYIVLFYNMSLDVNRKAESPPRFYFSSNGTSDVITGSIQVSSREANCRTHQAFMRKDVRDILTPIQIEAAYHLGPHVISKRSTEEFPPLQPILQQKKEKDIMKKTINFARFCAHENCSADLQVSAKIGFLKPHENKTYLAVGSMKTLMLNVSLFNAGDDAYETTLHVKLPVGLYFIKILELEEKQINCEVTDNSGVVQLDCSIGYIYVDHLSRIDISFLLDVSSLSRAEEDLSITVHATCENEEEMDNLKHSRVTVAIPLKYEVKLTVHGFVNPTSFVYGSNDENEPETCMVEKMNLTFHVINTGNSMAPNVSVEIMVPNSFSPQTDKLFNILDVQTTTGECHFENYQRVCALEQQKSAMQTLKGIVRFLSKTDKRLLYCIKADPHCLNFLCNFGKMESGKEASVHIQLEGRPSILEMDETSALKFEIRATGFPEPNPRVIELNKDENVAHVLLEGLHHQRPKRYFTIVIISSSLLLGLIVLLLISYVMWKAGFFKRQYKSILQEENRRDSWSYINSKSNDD
T1 sequence (P26010 20-798): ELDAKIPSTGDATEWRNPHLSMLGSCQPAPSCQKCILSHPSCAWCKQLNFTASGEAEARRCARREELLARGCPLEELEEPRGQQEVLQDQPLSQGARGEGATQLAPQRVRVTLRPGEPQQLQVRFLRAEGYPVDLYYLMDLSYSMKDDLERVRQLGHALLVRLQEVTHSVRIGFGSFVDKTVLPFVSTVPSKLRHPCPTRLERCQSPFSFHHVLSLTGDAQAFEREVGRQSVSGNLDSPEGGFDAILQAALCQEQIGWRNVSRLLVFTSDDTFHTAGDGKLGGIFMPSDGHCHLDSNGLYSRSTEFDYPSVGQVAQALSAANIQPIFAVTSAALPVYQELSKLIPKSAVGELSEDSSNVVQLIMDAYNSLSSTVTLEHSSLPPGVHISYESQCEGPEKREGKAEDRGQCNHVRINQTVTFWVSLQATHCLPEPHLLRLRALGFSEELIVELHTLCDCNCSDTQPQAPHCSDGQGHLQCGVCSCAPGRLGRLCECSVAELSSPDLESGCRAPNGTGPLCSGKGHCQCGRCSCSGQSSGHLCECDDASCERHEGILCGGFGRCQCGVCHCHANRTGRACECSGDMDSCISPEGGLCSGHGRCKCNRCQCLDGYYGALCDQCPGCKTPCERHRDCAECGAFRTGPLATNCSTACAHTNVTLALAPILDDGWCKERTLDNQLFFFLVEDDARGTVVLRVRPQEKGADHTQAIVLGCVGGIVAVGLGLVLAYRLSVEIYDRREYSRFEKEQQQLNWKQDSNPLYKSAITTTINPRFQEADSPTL
Experiment: RPMI-CS-1 cell adhesion assay
Assay type: cell-based
Conditions: adhesion of RPMI B-cell line (expresses α4β7) to CS-1 peptide coated microwells; read-out: RPMI-CS-1 IC50 value range
Protocol: RPMI-CS-1 Cell Adhesion Assay:
The test compounds were added in increasing concentrations to RPMI cells and then the cell-compound mixture was added to CS-1 coated microwells. The plates were incubated, washed and the percentage of attached cells were quantitated.
The CS-1 derived peptide, […], and the scrambled control peptide, […], were synthesized at Tanabe Research Laboratories, USA, Inc. on a Beckman 990 synthesizer using t-Boc methodology. […] Microtiter plates were coated with 20 μg/ml human serum albumin (HSA) for 2 hours at room temperature, washed once with PBS and derivatized with 10 μg/ml SPDP for 1 hour. […] Unbound peptide was removed from the plates by washing with PBS. To block non-reacted sites, the plates were coated with 100 μl of a 2.5 mg/ml BSA solution in PBS for one hour at 37° C. 100 μl of RPMI cells (2.5×10^6 cells/ml) in Dulbecco's Modified Eagles Medium (DMEM) plus 0.25% ovalbumin were added to peptide coated dishes and incubated for 1 hour at 37° C. […] To do this, the enzyme substrate p-nitrophenyl-N-acetyl-β-D-glucoseaminide is dissolved at 7.5 mM in 0.1 M citrate buffer pH 5 and then mixed with an equal volume of 0.5% Triton X100. 50 μl of the substrate solution was added to the plates and the plates were incubated at 37° C. for 60 minutes.
In this assay, IC50 value ranges (μM) are depicted by A, B, C and D. These ranges as follows. D>5≧C>1≧B>0.3≧A

Structure (SMILES) | IC50 [µM]
COC(=O)[C@H](Cc1ccc(-c2ccccc2CNc2cccnc2)cc1)NC(=O)c1c(Cl)cccc1Cl [Example 116] | 1 to 5
CC(C)Oc1ccccc1-c1ccc(C[C@H](NC(=O)c2c(Cl)cccc2Cl)C(=O)O)cc1 [Example 225, N-(2,6-Dichlorobenzoyl)-4-(2-i-propoxyphenyl)-L-phenylalanine] | 1 to 5
COc1ccccc1-c1ccc(C[C@H](NC(=O)c2ccc(NC(=S)NCc3ccccc3)cc2Cl)C(=O)O)cc1 [Example 194, N-[4-(3-Benzylthioureido)-2-chlorobenzoyl]-4-(2-methoxyphenyl)-L-phenylalanine] | 1 to 5
COc1ccccc1-c1ccc(C[C@H](NC(=O)c2cccnc2Cl)C(=O)O)cc1 [Example 90] | 0.3 to 1
COc1cc(OCc2ccsc2)cc(OC)c1-c1ccc(C[C@H](NC(=O)c2c(Cl)cccc2Cl)C(=O)O)cc1 [Example 220, N-(2,6-Dichlorobenzoyl)-4-[2,6-dimethoxy-4-(3-thienylmethoxy)phenyl]-L-phenylalanine] | < 0.3
COC(=O)Nc1ccccc1-c1ccc(C[C@H](NC(=O)c2c(Cl)cccc2Cl)C(=O)O)cc1 [Example 26, N-(2,6-Dichlorobenzoyl)-4-[2-(methoxycarbonylamino)phenyl]-L-phenylalanine] | 0.3 to 1
COc1cc(CN(C)C)cc(OC)c1-c1ccc(C[C@H](NC(=O)c2c(Cl)cccc2Cl)C(=O)O)cc1 [Example 255, N-(2,6-Dichlorobenzoyl)-4-[2,6-dimethoxy-4-[(N,N-dimethylamino)methyl]phenyl]-L-phenylalanine] | < 0.3
COc1cc(O)cc(OC)c1-c1ccc(C[C@H](NC(=O)c2c(Cl)cccc2Cl)C(=O)O)cc1 [Example 346, N-(2,6-Dichlorobenzoyl)-4-(2,6-dimethoxy-4-hydroxyphenyl)-L-phenylalanine] | < 0.3
O=C(N[C@@H](Cc1ccc(-c2ccccc2)cc1)C(=O)O)c1ccc(F)cc1Cl [Example 109] | > 5
O=C(N[C@@H](Cc1ccc(-c2ccsc2)cc1)C(=O)O)c1c(Cl)cccc1Cl [Example 128] | 0.3 to 1
COc1cc(CN(C)CCN(C)C)cc(OC)c1-c1ccc(C[C@H](NC(=O)c2c(Cl)cccc2Cl)C(=O)O)cc1 [Example 247] | < 0.3
COc1ccccc1-c1ccc(C[C@H](NC(=O)c2c(F)cccc2Cl)C(=O)O)cc1 [Example 86] | < 0.3
CNC(=O)c1ccccc1-c1ccc(C[C@H](NC(=O)c2c(Cl)cccc2Cl)C(=O)O)cc1 [Example 54, N-(2,6-Dichlorobenzoyl)-4-[2-(N-methylcarbamoyl)phenyl]-L-phenylalanine] | 0.3 to 1
COc1cc(OCc2ccccn2)cc(OC)c1-c1ccc(C[C@H](NC(=O)c2c(Cl)cccc2Cl)C(=O)O)cc1 [Example 349] | < 0.3
O=C(N[C@@H](Cc1ccc(-c2ccccc2CNCc2ccccc2)cc1)C(=O)O)c1c(Cl)cccc1Cl [Example 48, N-(2,6-Dichlorobenzoyl)-4-[2-[(benzylamino)methyl]phenyl]-L-phenylalanine] | 1 to 5
O=Cc1ccccc1-c1ccc(C[C@H](NC(=O)c2c(Cl)cccc2Cl)C(=O)O)cc1 [Example 45, N-(2,6-Dichlorobenzoyl)-4-(2-formylphenyl)-L-phenylalanine] | < 0.3
O=C(N[C@@H](Cc1ccc(-c2ccccc2)cc1)C(=O)O)c1ccccc1[N+](=O)[O-] [Example 110] | > 5
COc1cc(CN2CCN(Cc3ccccc3)CC2)cc(OC)c1-c1ccc(C[C@H](NC(=O)c2c(Cl)cccc2Cl)C(=O)O)cc1 [Example 258, N-(2,6-Dichlorobenzoyl)-4-[2,6-dimethoxy-4-[(4-benzyl-1-piperazinyl)methyl]phenyl]-L-phenylalanine] | < 0.3
CS(=O)(=O)NC(=O)c1ccccc1-c1ccc(C[C@H](NC(=O)c2c(Cl)cccc2Cl)C(=O)O)cc1 [Example 61, N-(2,6-Dichlorobenzoyl)-4-[2-[(N-methanesulfonyl)carbamoyl]phenyl]-L-phenylalanine] | > 5
